Assay results as given in patent US9978954B2, “Benzobis (thiadiazole) derivative, ink comprising same, and organic electronic device comprising same” (UBE INDUSTRIES, LTD., priority 2013, dated 2018).

Assay: Evaluation of solubility in organic solvents (visual observation of complete dissolution)
Assay type: physicochemical
Experimental: [Evaluation of Solubility]
The evaluation of the solubility of the synthesized compound was conducted by the following method.
About 2-3 mg of the compound was precisely weighed, and each solvent was added to the compound such that a predetermined concentration of the solute (0.5 wt %, 0.3 wt %, 0.2 wt %, 0.1 wt %, 0.05 wt %, or 0.03 wt %) was reached. The resultant mixture was stirred for 30 minutes at a predetermined temperature, and then it was evaluated by visual appearance observation whether or not the solute (synthesized compound) was completely dissolved in the solvent, which was the result of the evaluation of the solubility. As the solvent, chloroform (boiling point 61° C.), toluene (boiling point 111° C.), xylene (boiling point 144° C.), mesitylene (boiling point 165° C.), chlorobenzene (boiling point 130° C.), para-chlorotoluene (boiling point 162° C.), and ortho-dichlorobenzene (boiling point 181° C.) were used.

solubility (solute concentration completely dissolved) (mesitylene, 80° C.) [wt %]	solubility (solute concentration completely dissolved) (mesitylene, 130° C.) [wt %]	solubility (solute concentration completely dissolved) (toluene, 100° C.) [wt %]	solubility (solute concentration completely dissolved) (chlorobenzene, 80° C.) [wt %]	solubility (solute concentration completely dissolved) (mesitylene, 25° C.) [wt %]	solubility (solute concentration completely dissolved) (ortho-dichlorobenzene, 80° C.) [wt %]	solubility (solute concentration completely dissolved) (toluene, 25° C.) [wt %]	solubility (solute concentration completely dissolved) (chlorobenzene, 25° C.) [wt %]	solubility (solute concentration completely dissolved) (ortho-dichlorobenzene, 25° C.) [wt %]	solubility (solute concentration completely dissolved) (toluene, 60° C.) [wt %]	solubility (solute concentration completely dissolved) (chlorobenzene, 60° C.) [wt %]	Compound	also measured
≥ 0.5		≥ 0.5					≥ 0.1		≥ 0.1	≥ 0.5	CCCCCCc1ccc(-c2ccc(-c3c4c(c(-c5ccc(-c6ccc(CCCCCC)c(C#N)c6)s5)c5nsnc35)N=S=N4)s2)cc1C#N [Compound (C7), 4,8-bis[5-(3-cyano-4-hexylphenyl)thiophene-2-yl]benzo[1,2-c:4,5-c′]bis[1,2,5]thiadiazole]	solubility (solute concentration completely dissolved) (mesitylene, 60° C.): ≥ 0.1 wt %
							≥ 0.03	≥ 0.03			CCCCCCc1cc(-c2ccc(-c3c4c(c(-c5ccc(-c6ccc(C#N)c(CCCCCC)c6)s5)c5nsnc35)N=S=N4)s2)ccc1C#N [Compound (C8), 4,8-bis[5-(4-cyano-3-hexylphenyl)thiophene-2-yl]benzo[1,2-c:4,5-c′]bis[1,2,5]thiadiazole]	solubility (solute concentration completely dissolved) (chloroform, 60° C.): ≥ 0.05 wt %; solubility (solute concentration completely dissolved) (chloroform, 80° C.): ≥ 0.2 wt %; solubility (solute concentration completely dissolved) (para-chlorotoluene, 100° C.): ≥ 0.3 wt %
≥ 0.5				≥ 0.03		≥ 0.03	≥ 0.03	≥ 0.03	≥ 0.1		CCCCCCc1ccc(-c2ccc(-c3c4c(c(-c5ccc(-c6ccc(CCCCCC)c(C(F)(F)F)c6)s5)c5nsnc35)N=S=N4)s2)cc1C(F)(F)F [Compound (C9), 4,8-bis[5-(4-hexyl-3-(trifluoromethyl)phenyl)thiophene-2-yl]benzo[1,2-c:4,5-c′]bis[1,2,5]thiadiazole]	solubility (solute concentration completely dissolved) (mesitylene, 60° C.): ≥ 0.1 wt %; solubility (solute concentration completely dissolved) (toluene, 80° C.): ≥ 0.5 wt %
			≥ 0.3	≥ 0.03		≥ 0.03	≥ 0.03	≥ 0.03		≥ 0.1	CCCCCCc1cc(-c2ccc(-c3c4c(c(-c5ccc(-c6ccc(C(F)(F)F)c(CCCCCC)c6)s5)c5nsnc35)N=S=N4)s2)ccc1C(F)(F)F [Compound (C10), 4,8-bis[5-(3-hexyl-4-(trifluoromethyl)phenyl)thiophene-2-yl]benzo[1,2-c:4,5-c′]bis[1,2,5]thiadiazole]	solubility (solute concentration completely dissolved) (ortho-dichlorobenzene, 60° C.): ≥ 0.1 wt %; solubility (solute concentration completely dissolved) (ortho-dichlorobenzene, 100° C.): ≥ 0.5 wt %

Continued, compound first:

Compound	solubility (solute concentration completely dissolved) (mesitylene, 80° C.) [wt %]	solubility (solute concentration completely dissolved) (mesitylene, 130° C.) [wt %]	solubility (solute concentration completely dissolved) (toluene, 100° C.) [wt %]	solubility (solute concentration completely dissolved) (chlorobenzene, 80° C.) [wt %]	solubility (solute concentration completely dissolved) (mesitylene, 25° C.) [wt %]	solubility (solute concentration completely dissolved) (ortho-dichlorobenzene, 80° C.) [wt %]	solubility (solute concentration completely dissolved) (toluene, 25° C.) [wt %]	solubility (solute concentration completely dissolved) (chlorobenzene, 25° C.) [wt %]	solubility (solute concentration completely dissolved) (ortho-dichlorobenzene, 25° C.) [wt %]	solubility (solute concentration completely dissolved) (toluene, 60° C.) [wt %]	solubility (solute concentration completely dissolved) (chlorobenzene, 60° C.) [wt %]	also measured
4,8-bis[5-(4-cyano-3-(2-methylhexyl)phenyl)thiophene-2-yl]benzo[1,2-c:4,5-c′]bis[1,2,5]thiadiazole [Compound (C29)]												solubility (solute concentration completely dissolved) (1-methylnaphthalene, 60° C.): ≥ 0.3 wt %; solubility (solute concentration completely dissolved) (chloroform, 60° C.): ≥ 0.1 wt %
FC(F)(F)Oc1cccc(-c2ccc(-c3c4c(c(-c5ccc(-c6cccc(OC(F)(F)F)c6)s5)c5nsnc35)N=S=N4)s2)c1 [Compound (C1), 4,8-bis[5-(3-(trifluoromethoxy)phenyl)thiophene-2-yl]benzo[1,2-c:4,5-c′]bis[1,2,5]thiadiazole]	≥ 0.1	≥ 0.3	≥ 0.1									
FC(F)(F)c1cccc(-c2ccc(-c3c4c(c(-c5ccc(-c6cccc(C(F)(F)F)c6)s5)c5nsnc35)N=S=N4)s2)c1 [Compound (C2), 4,8-bis[5-(3-(trifluoromethyl)phenyl)thiophene-2-yl]benzo[1,2-c:4,5-c′]bis[1,2,5]thiadiazole]	≥ 0.1		≥ 0.1	≥ 0.1	≥ 0.03	≥ 0.1	≥ 0.03					solubility (solute concentration completely dissolved) (chlorobenzene, 100° C.): ≥ 0.3 wt %; solubility (solute concentration completely dissolved) (ortho-dichlorobenzene, 100° C.): ≥ 0.5 wt %
FC(F)(F)c1cc(-c2ccc(-c3c4c(c(-c5ccc(-c6cc(C(F)(F)F)cc(C(F)(F)F)c6)s5)c5nsnc35)N=S=N4)s2)cc(C(F)(F)F)c1 [Compound (C3), 4,8-bis[5-(3,5-bis(trifluoromethyl)phenyl)thiophene-2-yl]benzo[1,2-c:4,5-c′]bis[1,2,5]thiadiazole]		≥ 0.1										solubility (solute concentration completely dissolved) (chlorobenzene, 130° C.): ≥ 0.1 wt %; solubility (solute concentration completely dissolved) (ortho-dichlorobenzene, 100° C.): ≥ 0.1 wt %
CCCCCCCCCCC(F)(F)c1cccc(-c2ccc(-c3c4c(c(-c5ccc(-c6cccc(C(F)(F)CCCCCCCCCC)c6)s5)c5nsnc35)N=S=N4)s2)c1 [Compound (C4), 4,8-bis[5-(3-(1,1-difluoroundecyl)phenyl)thiophene-2-yl]benzo[1,2-c:4,5-c′]bis[1,2,5]thiadiazole]			≥ 0.5		≥ 0.03		≥ 0.03	≥ 0.03	≥ 0.03	≥ 0.1		solubility (solute concentration completely dissolved) (mesitylene, 60° C.): ≥ 0.1 wt %; solubility (solute concentration completely dissolved) (mesitylene, 100° C.): ≥ 0.5 wt %
FC(F)(F)Sc1cccc(-c2ccc(-c3c4c(c(-c5ccc(-c6cccc(SC(F)(F)F)c6)s5)c5nsnc35)N=S=N4)s2)c1 [Compound (C6), 4,8-bis[5-(3-((trifluoromethyl)thio)phenyl)thiophene-2-yl]benzo[1,2-c:4,5-c′]bis[1,2,5]thiadiazole]	≥ 0.1	≥ 0.3		≥ 0.1		≥ 0.1						solubility (solute concentration completely dissolved) (chlorobenzene, 130° C.): ≥ 0.5 wt %; solubility (solute concentration completely dissolved) (ortho-dichlorobenzene, 130° C.): ≥ 0.5 wt %; solubility (solute concentration completely dissolved) (toluene, 80° C.): ≥ 0.1 wt %
CCCCCCc1ccc(-c2ccc(-c3c4c(c(-c5ccc(-c6ccc(CCCCCC)c(OC(F)(F)F)c6)s5)c5nsnc35)N=S=N4)s2)cc1OC(F)(F)F [Compound (C11), 4,8-bis[5-(4-hexyl-3-(trifluoromethoxy)phenyl)thiophene-2-yl]benzo[1,2-c:4,5-c′]bis[1,2,5]thiadiazole]	≥ 0.1			≥ 0.5		≥ 0.5				≥ 0.1	≥ 0.1	solubility (solute concentration completely dissolved) (mesitylene, 100° C.): ≥ 0.5 wt %; solubility (solute concentration completely dissolved) (ortho-dichlorobenzene, 60° C.): ≥ 0.1 wt %; solubility (solute concentration completely dissolved) (toluene, 80° C.): ≥ 0.5 wt %
CCCCCCc1cc(-c2ccc(-c3c4c(c(-c5ccc(-c6ccc(OC(F)(F)F)c(CCCCCC)c6)s5)c5nsnc35)N=S=N4)s2)ccc1OC(F)(F)F [Compound (C12)]	≥ 0.1	≥ 0.5		≥ 0.5		≥ 0.5					≥ 0.1	solubility (solute concentration completely dissolved) (ortho-dichlorobenzene, 60° C.): ≥ 0.1 wt %
